{"source": "patent US20250264461A1", "about": "“NANOVESICLE COMPRISING HETERODIMERIC G-PROTEIN COUPLED RECEPTOR, METHOD FOR PREPARING NANOVESICLE, FIELD EFFECT TRANSISTOR-BASED TASTE SENSOR COMPRISING NANOVESICLE, AND METHOD FOR MANUFACTURING TASTE SENSOR” (Seoul National University R&DB Foundation, priority 2013, published 2025)", "key": {"[1]": {"target": "T1, sweet taste substance receptor protein (hTAS1R2 and hTAS1R3) (Homo sapiens, UniProt Q7RTX0+Q8TE23)", "T1 construct": "HA (N); expressed in transfected cells", "T1 sequence (Q8TE23 20-839)": "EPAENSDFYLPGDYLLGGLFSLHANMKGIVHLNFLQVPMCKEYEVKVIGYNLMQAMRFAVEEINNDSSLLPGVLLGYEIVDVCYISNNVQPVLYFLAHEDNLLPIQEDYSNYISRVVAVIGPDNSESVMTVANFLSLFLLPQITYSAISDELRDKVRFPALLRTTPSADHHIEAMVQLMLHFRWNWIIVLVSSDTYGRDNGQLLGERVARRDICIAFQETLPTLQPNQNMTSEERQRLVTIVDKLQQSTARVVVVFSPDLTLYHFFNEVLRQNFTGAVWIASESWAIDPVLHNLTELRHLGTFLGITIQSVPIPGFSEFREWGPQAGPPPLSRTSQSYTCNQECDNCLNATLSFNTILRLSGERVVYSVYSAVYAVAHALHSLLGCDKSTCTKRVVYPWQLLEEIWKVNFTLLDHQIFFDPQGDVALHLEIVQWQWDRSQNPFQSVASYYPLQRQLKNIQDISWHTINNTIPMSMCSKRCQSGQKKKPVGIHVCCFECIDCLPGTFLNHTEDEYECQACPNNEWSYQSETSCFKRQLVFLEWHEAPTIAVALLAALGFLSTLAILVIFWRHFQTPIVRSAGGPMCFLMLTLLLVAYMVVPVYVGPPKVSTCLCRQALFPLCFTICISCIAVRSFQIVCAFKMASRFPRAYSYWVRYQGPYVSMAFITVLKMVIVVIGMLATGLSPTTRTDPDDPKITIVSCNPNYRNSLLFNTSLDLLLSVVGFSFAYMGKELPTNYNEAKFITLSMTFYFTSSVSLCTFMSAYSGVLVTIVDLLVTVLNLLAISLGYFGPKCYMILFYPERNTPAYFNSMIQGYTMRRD", "T1 sequence (Q7RTX0 21-852)": "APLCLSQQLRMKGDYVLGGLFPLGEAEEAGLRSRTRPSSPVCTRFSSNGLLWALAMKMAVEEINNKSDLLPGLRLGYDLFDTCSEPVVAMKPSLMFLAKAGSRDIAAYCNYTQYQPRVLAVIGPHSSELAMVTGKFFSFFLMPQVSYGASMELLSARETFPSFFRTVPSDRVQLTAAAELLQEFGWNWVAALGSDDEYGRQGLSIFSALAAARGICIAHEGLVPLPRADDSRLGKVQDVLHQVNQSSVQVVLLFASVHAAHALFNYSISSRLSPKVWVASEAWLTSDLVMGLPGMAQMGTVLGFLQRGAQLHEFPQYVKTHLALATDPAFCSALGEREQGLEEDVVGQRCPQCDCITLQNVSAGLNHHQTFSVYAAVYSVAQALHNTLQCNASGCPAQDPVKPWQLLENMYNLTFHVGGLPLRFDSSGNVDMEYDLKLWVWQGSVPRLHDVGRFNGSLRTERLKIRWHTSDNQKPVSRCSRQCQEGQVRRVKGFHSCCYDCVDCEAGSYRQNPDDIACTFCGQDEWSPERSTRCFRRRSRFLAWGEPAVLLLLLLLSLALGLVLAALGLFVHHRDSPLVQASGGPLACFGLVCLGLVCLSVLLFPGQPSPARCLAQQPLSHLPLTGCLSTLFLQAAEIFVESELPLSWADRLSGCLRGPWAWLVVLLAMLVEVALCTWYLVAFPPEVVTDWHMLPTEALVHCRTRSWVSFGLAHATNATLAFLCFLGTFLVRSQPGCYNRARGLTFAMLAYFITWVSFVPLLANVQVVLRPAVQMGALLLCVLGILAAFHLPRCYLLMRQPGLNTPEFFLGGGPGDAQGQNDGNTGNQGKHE", "experiment": "nanovesicle based field effect transistor taste sensor, real-time source-drain current / conductance", "type": "biochemical", "settings": "for signal change: 100 mM added"}, "[2]": {"target": "T1, sweet taste substance receptor protein (hTAS1R2 and hTAS1R3)", "experiment": "nanovesicle based field effect transistor taste sensor, real-time source-drain current / conductance", "type": "biochemical", "settings": "for fit of sensor signals to the hill equation model: FIG. 4C; for signal generating from the taste sensor (sensitivity ΔG/G0): FIG. 3C", "method": "A sweet taste substance (Sigma Aldrich, USA) with a 1 mM concentration was dissolved into PBS (phosphate buffered saline; Gibco, USA) containing 2 mM CaCl2 therein. The resulting solution was sequentially diluted 1/10 times to acquire a diluent. The diluent was exposed to the nanovesicle based field effect transistor manufactured in the embodiment 2. A current between the source electrode and drain electrode was measured in a real time manner to check a reaction magnitude. A sensitivity ΔG/G0 of a sweet taste substance relative to sucrose in the nanovesicle based field effect transistor was measured in a real time manner."}, "[3]": {"target": "T2, heterodimeric receptor including the hTAS1R2 and hTAS1R3 (Homo sapiens, UniProt Q7RTX0+Q8TE23)", "T2 construct": "HA (N); expressed in transfected cells", "T2 sequence (Q8TE23 20-839)": "T1 sequence (Q8TE23 20-839)", "T2 sequence (Q7RTX0 21-852)": "T1 sequence (Q7RTX0 21-852)", "experiment": "Ca2+ dependent fluorescence signal in transformed HEK-293 cell line", "type": "cell-based", "settings": "10 mM sucrose added, Fura 2-AM, ratio of 340/380 nm stimulation, emission 510 nm, FIG. 2C", "method": "(§1) A signal transfer via a sweet taste substance of each of the nanovesicle and HEK-293 cell was checked wherein the HEK-293 cell has the expressed heterodimeric receptor including the hTAS1R2 and hTAS1R3 manufactured in the embodiment 1, and the nanovesicle is separated from the HEK-293 cell.\n(§2) For this, the transformed HEK-293 cell line was incubated for three or more days. Then, 5 μm Fura 2-AM (acetoxymethyl)(calcium indicator, Invitrogen) was loaded on the cells in an imaging buffer solution (NaCl 140 mM, KCl 5 mM, MgCl2 1 mM, CaCl2 2 mM, HEPES 10 mM, Glucose 10 mM, 0.1% Pluronic F-127, pH 7.4). A non-specific esterase residing in the cell performs hydrolysis for an AM ester group to be changed into a form sensitive to Ca^2+ ions. […]\n(§3) After three times cleaning using respective solutions, a ligand and ATP (100 uM) for a Ca^2+ dependent fluorescence signal was injected thereto, and, dual stimulations (340 nm, and 380 nm) were applied thereto. Thereafter, a fluorescence signal due to Ca^2+ at 510 nm was measured using a spectrofluorophotometer. The fluorescence signal was obtained at 2 seconds intervals. A final result was shown as a ratio between fluorescence strengths resulting from the dual stimulations."}, "[4]": {"target": "T3, nanovesicle including TAS1R2 and TAS1R3 (Homo sapiens, UniProt Q7RTX0+Q8TE23)", "T3 construct": "HA (N); expressed in transfected cells", "T3 sequence (Q8TE23 20-839)": "T1 sequence (Q8TE23 20-839)", "T3 sequence (Q7RTX0 21-852)": "T1 sequence (Q7RTX0 21-852)", "experiment": "Ca2+ dependent fluorescence signal in nanovesicle separated from transformed HEK-293 cell line", "type": "biochemical", "settings": "10 mM sucrose added, FIG. 2F", "method": "as §1, §2, §3"}}, "note": "Peptide text beside a SMILES is read from it."}
{"smiles": "O=C[C@H](O)[C@@H](O)[C@H](O)[C@H](O)C(=O)O", "note": "[D-glucuronic acid]", "values": [{"measurement": "signal change", "setting": "[1]; FIG. 4B", "result": "no signal change"}]}
{"smiles": "COC(=O)[C@H](Cc1ccccc1)NC(=O)[C@@H](N)CC(=O)O", "note": "[aspartame] (H-Asp-Phe-OMe)", "values": [{"measurement": "fit of sensor signals to the hill equation model", "setting": "[2]", "result": "comply with the hill equation model"}, {"measurement": "sensitivity as a working substance relative to sucrose", "setting": "[2]; compared with sucrose", "result": "more sensitive"}]}
{"smiles": "OC[C@H]1O[C@@H](O[C@H]2[C@H](O)[C@@H](O)[C@H](O)O[C@@H]2CO)[C@H](O)[C@@H](O)[C@@H]1O", "note": "[cellobios]", "values": [{"measurement": "signal change", "setting": "[1]; FIG. 4B", "result": "no signal change"}]}
{"smiles": "OC[C@H]1O[C@@](CO)(O[C@H]2O[C@H](CO)[C@@H](O)[C@H](O)[C@H]2O)[C@@H](O)[C@@H]1O", "note": "[sucrose]", "values": [{"measurement": "reaction magnitude decrease", "setting": "[1]; 500 uM added, FIG. 4B", "result": "about 5%"}, {"measurement": "detection in real samples", "setting": "[1]; 1 mM concentration, contained in coffee and Darjeeling tea, FIG. 4D", "result": "may be detected"}, {"measurement": "fluorescence emission strength", "setting": "[3]", "result": "relatively increases"}, {"measurement": "fluorescence emission strength", "setting": "[4]", "result": "relatively increases"}, {"measurement": "signal generating from the taste sensor (sensitivity ΔG/G0)", "setting": "[2]; 100 uM concentration", "result": "decreases"}, {"measurement": "signal generating from the taste sensor (sensitivity ΔG/G0)", "setting": "[2]; 500 uM concentration", "result": "rapidly decreases"}, {"measurement": "fit of sensor signals to the hill equation model", "setting": "[2]", "result": "comply with the hill equation model"}]}
{"smiles": "O=C(CO)[C@@H](O)[C@H](O)[C@H](O)CO", "note": "[fructose]", "values": [{"measurement": "fit of sensor signals to the hill equation model", "setting": "[2]", "result": "comply with the hill equation model"}]}
